Assay results reported in US20190070170A1, “METHOD OF S[…]-1” (Macau University of Science and Technology, priority 2017, published 2019).

Assays:
COX-2 [1] = assay: COX-2 protein expression in IL-1β-stimulated A549 cells (western blotting); type: cell-based; settings: IL-1β with SIN or DEX for 48 h
Description: RAW264.7 and A549 cell lines were obtained from American Type Culture Collection (ATCC, Manassas, Va., USA) and maintained in DMEM (RAW264.7) or 1640 (A549) medium containing 10% FBS (Gibco-BRL, Grand Island, N.Y., USA) and antibiotics at 37° C. in a humidified atmosphere containing 5% CO2. RAW264.7 cells were plated in 6-well plates at a density of 4×10^5 cells and incubated for 24 h, then the cells were pretreated with different concentrations of SIN for 1 h before stimulating with LPS (100 ng/ml). A549 cells were seeded in 6-well plates at a density of 1×10^5 cells and incubated for 24 h, followed by pretreatment with SIN. A549 cells were then stimulated by IL-1β (1 ng/ml).
Whole-cell and nuclear proteins were obtained using RIPA lysis buffer (CST, Boston, Mass., USA) and Nuclear and Cytoplasmic Extraction Reagents kit from Thermo Scientific (Asheville, N.C., USA), respectively. For immunoblotting, proteins from whole-cell, cytoplasm, nuclear, and microsomal fractions were separated on SDS-PAGE, then transferred onto a nitrocellulose membrane from GE Healthcare Life Sciences (Buckinghamshire, UK), and incubated with 5% skimmed milk at room temperature for 1 h. […] The levels of protein expression were measured using Odyssey v3.0 software from Li-COR (Lincoln, Nebr., USA).

CEBPβ (COX-2 promoter) = assay: ChIP assay: CEBPβ DNA binding to COX-2 promoter in LPS-stimulated rat peritoneal macrophages; type: cell-based; settings: 640 μM SIN 1 h, 1 μg/ml LPS 30 min
Description: Rat peritoneal macrophages were pretreated with 640 μM SIN (1 h) and stimulated with 1 μg/ml LPS (30 min) before fixation at room temperature for 10 min with 1% formaldehyde. Fixation was terminated by adding glycine (to 0.125 M) with an additional incubation of 5 min, then the cells were washed twice with ice-cold PBS and harvested by scraping and centrifugation (1500 rpm for 10 min at 4° C.). Cell lysis was performed using ChIP kit from abcam (Cambridge, UK) according to the manufacturer's instructions. Briefly, cell pellets were resuspended in 1 ml Buffer B by pipetting up and down several times in a microcentrifuge tube and incubated at room temperature for 10 min. After centrifugation at 5000 rpm, the pellet was collected and resuspended in ice cold Buffer C and incubated on ice for 10 min, followed by centrifugation (5,000 rpm for 10 min at 4° C.). The pellet was mixed with 100 μl Buffer D containing protease inhibitors, incubated on ice for 10 min and sonicated for 30 cycles in a Bioruptor UCD-300 sonicator (power on high, 30 s on, 30 s off per cycle), yielding DNA fragments of 150-200 bps (the size of sonicated chromatin was checked through running 2% agarose gel). Beads were blocked overnight in PBS with 0.5% BSA and then added to the samples. […]

COX-2 [2] = assay: COX-2 protein in microsomes of inflamed paw of carrageenan-induced rats (western blotting); type: in vivo, SD rats; settings: SIN or DEX pretreatment i.p.
Description: (§1) The model of carrageenan-induced paw edema was performed with SD rats (150-200 g). The carrageenan-induced paw edema was performed in SD rats (150-200 g) by subcutaneously injection λ-carrageenan as described in Liu J. et al., Pharmacological research 2016, 111 and Luo P. et al., J. Pharmacol. Exp. Ther. 2010. Briefly, rats were fasted for 12 h before experiment and intraperitoneal injection was performed with three different doses (25, 50 and 100 mg/kg) of SIN, or DEX (reference drug, 2 mg/kg) or 0.9% saline (Vehicle and Normal group rats), at 2 h prior to the induction of paw edema. […] Paw volumes (ml) of right hind foot of each rat were measured using a plethysmometer (type 7150; UGO Basile, Comerio, Italy) at 0 h (before carrageenan injection) and then again at 1, 2, 3 and 4 h after the injection of carrageenan or saline. The percentage of paw edema of the right hind paws of all groups were calculated at different time points by the following equation: […]
(§2) Whole-cell and nuclear proteins were obtained using RIPA lysis buffer (CST, Boston, Mass., USA) and Nuclear and Cytoplasmic Extraction Reagents kit from Thermo Scientific (Asheville, N.C., USA), respectively. […] The levels of protein expression were measured using Odyssey v3.0 software from Li-COR (Lincoln, Nebr., USA).

COX-1 = COX-1 protein in microsomes of inflamed paw of carrageenan-induced rats (western blotting); type: in vivo, SD rats; settings: SIN or DEX pretreatment i.p.
Description: as §1, §2

COC1=C[C@@H]2[C@@H]3Cc4ccc(OC)c(O)c4[C@]2(CCN3C)CC1=O [SIN, sinomenine]
COX-2 protein expression (COX-2 [1]): did not suppress | DNA binding of CEBPβ to the COX-2 promoter (CEBPβ (COX-2 promoter)): inhibited | COX-2 level in inflamed paw (COX-2 [2]): did not produce observable effects | COX-1 level in inflamed paw (COX-1): did not produce observable effects
